The text below walks through data of patent publication US5488049A, “Method of treating learning and memory disorders using benzothiadiazide derivatives as nootropic agents” (FIDIA - Georgetown Institute for the Neuro-Sciences, priority 1993, dated 1996).

What all share (type): cell-based, rat
The test system of experiment [1] is AMPA receptor. The experiment can be described thus: Fast application with double barrel pipette: AMPA receptor desensitization in outside-out patches from CAl hippocampal pyramidal neurons. As for the experimental part: (§1) Young rats (12-16 days old) were decapitated and the brains quickly removed and placed in ice-cold Ringer solution. Thin slices of hippocampus (250 μm) were then cut with a vibratome slicer (Lancer, St. Louis, Mo.) and kept in Ringer solution at 37° C. until use. The experiments were carried out at room temperature with the slice totally submerged in a 1 ml volume recording chamber and under continuous perfusion with Ringer solution at a rate of 6 ml/min using an upright Hoffman modulation contrast microscope (Carl Zeiss, Germany) equipped with a 40×water immersion objective.
(§2) Media and drug application. The external Ringer solution contained (in mM): NaCl 120; KCl 3.1; CaCl2 2; MgCl2 1; KH2 PO4 1; NaHCO3 26; glucose 2.7; and it was continuously bubbled with 95% O2 and 5% CO2. Patch pipettes were filled with a solution containing (in mM): K-gluconate 140; MgCl2 1; ATP.Mg 2; EGTA 0.5; HEPES-KOH 10, pH 7.2. All the drugs under investigation were applied through the recording chamber perfusion system via parallel inputs having a common entry into the chamber. Agonist application was attained using two different systems that allowed a slow or a rapid solution change. Slow solution changes were used during recordings in whole-cell configuration and were obtained by exchanging the solution of the recording chamber within a few seconds. Fast solution changes were obtained with the use of the Y-shaped tubing method that allows complete exchange of solution in less than 10 ms, and is described in detail by Murase et al. (1989).
Briefly, a polyethylene tubing (1 mm i.d.) is bent in a U-shaped, and another fine polyethylene tubing (50 μi.d.) and 10 mm length) is inserted into a small hole in the U-tubing making the tip of the Y-tubing. Solutions are fed to the Y-tubing by gravity, and negative pressure facilitates exchange of the solution. The tip of the Y-tubing is positioned 100 μm from the cell investigated, and upon opening and closing of a valve that controls the negative pressure, it was possible to respectively change rapidly and apply a number of different test solutions. This method was used to apply agonists to excised outside-out membrane patches. More rapid drug applications were used to apply agonists to excised outside-out membrane patches, and were obtained through a double-barrelled pipette positioned close to the recording pipette containing the membrane patch. […] The agonist was applied for a period of 150 ms and the time necessary for a complete exchange of the solution was less than 1 ms as measured at the opening of a patch pipette containing different dilutions of the drugs under study. […]
Ionic currents in whole-cell configuration and outside-out excised membrane patches were monitored using the patch clamp technique (15). […]

The test system of experiment [2] is AMPA receptors located on CAl pyramidal neuronal membranes. The experiment in a line: Slow bath perfusion, whole-cell: potentiation of glutamate-elicited current (with MK-801) in CAl pyramidal neurons of hippocampal slices. As for the experimental part:
as §1, §2
IDRA compounds (see above for structures) were first dissolved in 50 μl of DMSO, then […] of 1N NaOH and water (sufficient to reach a volume of 1 ml and a concentration of 10 mM). The final concentration was reached diluting the stock solution with Ringer solution.
Ionic currents in whole-cell configuration and outside-out excised membrane patches were monitored using the patch clamp technique (15).
The action diazoxide and the IDRA analogues were tested on the desensitization of AMPA receptors located on CAl pyramidal neuronal membranes in rat hippocampal slices. In order to evaluate whether the compounds under study increase the intensity of currents generated by the activation of non-NMDA receptors, these receptors were activated with glutamate in the presence of 5 μM MK-801 to block completely the ionic current elicited by glutamate acting on the NMDA receptor channels present in CAl pyramidal neurons. Three distinct methods of drug application were employed: 1) slow bath perfusion of agonist and drugs while recording in whole-cell mode (onset 30s); ii) fast application to outside-out patches of a fixed concentration of agonist with a double barrel pipette (onset<1 ms) in the presence and the absence of drugs; iii) fast perfusion (onset<6 ms) of increasing concentrations of agonist and drugs applied with the Y-tubing device to outside-out patches excised from neurons in brain slices and to voltage-clamped neurons in primary culture.
. The most efficacious (1 mM) derivative was IDRA21, which elicited a potentiation of 797±220% (n=4 cells), followed by IDRA 20 with a potentiation of 292±100% (n=4 cells) (FIG. 2). […]

Experiment [3] deals with AMPA receptor. The experiment can be described thus: Fast application with Y-tubing: dose-response on desensitization of glutamate current in outside-out patches from CAl pyramidal neurons. The following applies: increasing doses, 5 μM MK-801.
Text: as §2, with “Fast solution changes were obtained with the use of the Y-shaped tubing method that allows complete exchange of solution in less than 10 ms, and is described in detail by Murase et al. (1989).” left out
Briefly, a polyethylene tubing (1 mm i.d.) is bent in a U-shaped, and another fine polyethylene tubing (50 μi.d.) and 10 mm length) is inserted into a small hole in the U-tubing making the tip of the Y-tubing. […] The agonist was applied for a period of 150 ms and the time necessary for a complete exchange of the solution was less than 1 ms as measured at the opening of a patch pipette containing different dilutions of the drugs under study. […]
Dose-response studies were performed with the Y-tubing system, and analyzed with sigmoid interpolation (Graphpad Academic Press). […]

For `CC1Nc2ccc(Cl)cc2S(=O)(=O)N1` (racemic) [IDRA 21, 7-chloro-3-methyl-3,4-dihydro-2H 1,2,4-benzothiadiazine S-S dioxide], in the experiment on AMPA receptor [1] (1 mM IDRA 21, double barrel, outside-out patches, 4 of 5 patches), the “removal of glutamate-induced desensitization” value is “completely removed the desensitization induced by glutamate in 4 of 5 patches tested”. For the same molecule, the “desensitization of AMPA/Kainate receptors (summary)” value with AMPA receptor [1] (summary statement) is listed as “reduction in the desensitization of AMPA/Kainate receptors”. The “potentiation of glutamate-elicited current” value was 65±6.9% in experiment [2] (10 μM compound, mean±SE, N=4 cells); 109±30% in experiment [2] (100 μM compound, mean±SE, N=4 cells); 797±200% in experiment [2] (1 mM compound, 50 μM glutamate, 5 μM MK-801, whole-cell, slow perfusion); 797±220% in experiment [2] (1 mM compound, 50 μM glutamate, 5 μM MK-801, whole-cell, slow perfusion, listed as IDRA21). The “efficacy relative to diazoxide (potentiation of glutamate current)” value in experiment [2] (1 mM) worked out at 4 fold. Also, in experiment [2] (1 mM, maximal dose testable without vehicle effect), the “maximal efficacy reached, in words” value is listed as “failed to reach maximal efficacy at 1 mM”. Moreover, the “potentiation of glutamate current, dose dependence” value in experiment [2] (up to 1 mM) is recorded as “dose-dependent potentiation”. Moreover, the “desensitization of current activated by 100 μM glutamate” value in the experiment on AMPA receptor [3] is recorded as “decreased by increasing doses”.
